Experimental data taken from patent US9737535B2, “Methods for treating cancer using TOR kinase inhibitor combination therapy comprising administering substituted pyrazino[2,3-b]pyrazines” (Signal Pharmaceuticals, LLC, priority 2014, dated 2017).
Structures can show the parent of a compound that is named as a salt.

Experiments:
Test in all cases: Anti-proliferation assay (ATPLite), Chalice synergy score
Assay type in all cases: cell-based
BT-474 = conditions: Compound 1 in combination with the named second active agent, 72 h, mean of n = 3 experiments in triplicate
Excerpt: (§1) Cells were thawed from a liquid nitrogen preserved state.
(§2) The calculation for synergy score is provided below.
(§3) If T≧V0:100*[1−(T−V0)/(V−V0)]

MDA-MB-436 = conditions: Compound 1 in combination with second active agent, mean self-cross + 2σ threshold 1.91
Excerpt: as §1, §2, §3

Hs-578-T = conditions: Compound 1 in combination with second active agent, mean self-cross + 2σ threshold 4.09
Excerpt: as §1, §2, §3

MDA-MB-157 = conditions: Compound 1 in combination with second active agent, mean self-cross + 2σ threshold 4.68
Excerpt: as §1, §2, §3

MDA-MB-468 = conditions: Compound 1 in combination with second active agent, mean self-cross + 2σ threshold 4.66
Excerpt: as §1, §2, §3

HCC-1806 = conditions: Compound 1 in combination with the named second active agent, 72 h, mean of n = 3 experiments in triplicate
Excerpt: as §1, §2, §3

HCC-1428 = conditions: Compound 1 in combination with the named second active agent, 72 h, mean of n = 3 experiments in triplicate
Excerpt: as §1, §2, §3

HCC70 = conditions: Compound 1 in combination with second active agent; HCC-70; mean self-cross + 2σ threshold 3.45
Excerpt: as §1, §2, §3

MDA-MB-231 = conditions: Compound 1 in combination with second active agent, mean self-cross + 2σ threshold 2.61
Excerpt: as §1, §2, §3

HCC-1937 = conditions: Compound 1 in combination with the named second active agent, 72 h, mean of n = 3 experiments in triplicate
Excerpt: as §1, §2, §3

BT-549 = conditions: Compound 1 in combination with the named second active agent, 72 h, mean of n = 3 experiments in triplicate
Excerpt: as §1, §2, §3

MCF7 = conditions: Compound 1 in combination with second active agent, mean self-cross + 2σ threshold 3.07
Excerpt: as §1, §2, §3

HCC-1187 = test system: HCC-1187; set-up: scale not given here; conditions: Compound 1 in combination with the named second active agent, 72 h, mean of n = 3 experiments in triplicate
Excerpt: as §1, §2, §3

BT-20 = test system: BT-20; set-up: scale not given here; conditions: Compound 1 in combination with the named second active agent, 72 h, mean of n = 3 experiments in triplicate
Excerpt: as §1, §2, §3

HCC-1500 = test system: HCC-1500; set-up: scale not given here; conditions: Compound 1 in combination with the named second active agent, 72 h, mean of n = 3 experiments in triplicate
Excerpt: as §1, §2, §3

Row | Compound | Synergy score (BT-474) | Synergy score (MDA-MB-436) | Synergy score (Hs-578-T) | Synergy score (MDA-MB-157) | Synergy score (MDA-MB-468) | Synergy score (HCC-1806) | Synergy score (HCC-1428) | Synergy score (HCC70) | Synergy score (MDA-MB-231) | Synergy score (HCC-1937) | Synergy score (BT-549) | Synergy score (MCF7) | Synergy score (HCC-1187) | Synergy score (BT-20) | Synergy score (HCC-1500)
1 | CC[C@@]1(O)C(=O)OCc2c1cc1n(c2=O)Cc2cc3cc(O)ccc3nc2-1 [10-Hydroxycamptothecin] | 1.20 | 3.62 | 1.70 | 10.30 | 7.86 | 3.88 | 4.13 | 6.31 | 8.55 | 12.40 | 4.11 | 3.80 | 6.49 | 6.15 | 4.43
2 | CN(C)CC[C@H](CSc1ccccc1)Nc1ccc(S(=O)(=O)NC(=O)c2ccc(N3CCN(Cc4ccccc4-c4ccc(Cl)cc4)CC3)cc2)cc1[N+](=O)[O-] [ABT-737] | 4.14 | 0.56 | 10.00 | 4.46 | 8.29 | 6.15 | 10.60 | 9.10 | 10.00 | 5.46 | 6.10 | 6.97 | 8.77 | 7.28 | 4.23
3 | O=C(NC1CCNCC1)c1[nH]ncc1NC(=O)c1c(Cl)cccc1Cl [AT7519] | 0.19 | 2.57 | 5.16 | 5.37 | 1.98 | 1.01 | 1.58 | 0.86 | 2.68 | 2.04 | 4.33 | 2.84 | – | 4.95 | 0.03
4 | O=C(Nc1cccc(Nc2ncc(Br)c(NCCc3c[nH]cn3)n2)c1)N1CCCC1 [BX-912] | 0.87 | 2.50 | 6.07 | 6.65 | 8.29 | 0.57 | 2.05 | 6.05 | – | 0.44 | 1.52 | 0.69 | 4.10 | 1.32 | 2.11
5 | N.N.O=C([O-])C1(C(=O)[O-])CCC1.[Pt+2] [Carboplatin] | 0.30 | 1.10 | 1.65 | 1.77 | 7.18 | 0.44 | 0.52 | 2.26 | 0.45 | 2.46 | 0.72 | 0.80 | 2.20 | 0.98 | –
6 | CS(=O)(=O)c1ccc(C(=O)Nc2ccc(Cl)c(-c3ccccn3)c2)c(Cl)c1 [GDC-0449] | 1.47 | – | 0.28 | 0.77 | 0.44 | 0.20 | 0.07 | 1.10 | 0.08 | 0.88 | – | – | 3.07 | 0.11 | 0.78
7 | CNC(=O)c1ccc(-c2cnc3ncc(Cc4ccc5ncccc5c4)n3n2)cc1F [INCB28060] | 2.35 | 0.49 | 0.85 | 0.97 | 0.80 | 0.62 | 0.75 | 0.75 | 0.34 | 0.71 | 0.66 | 0.92 | 2.94 | – | 0.52
8 | CCc1c2c(nc3ccc(OC(=O)N4CCC(N5CCCCC5)CC4)cc13)-c1cc3c(c(=O)n1C2)COC(=O)[C@]3(O)CC [Irinotecan Hydrochloride] | 1.17 | 3.61 | – | 5.71 | 8.45 | – | 0.76 | 1.98 | 1.64 | 3.92 | 1.25 | 2.02 | 3.01 | 2.59 | 4.45
9 | c1ccc2c(CCNc3ccc(Nc4ccncc4)cc3)c[nH]c2c1 [JNJ 26854165] | 1.77 | 1.47 | 1.28 | 2.53 | 3.28 | 2.51 | 1.02 | 2.46 | 0.31 | – | 0.78 | 1.82 | 1.63 | 1.42 | 1.50
10 | CC(C)(C)Cn1c(N)nc2ccc(-c3[nH]c(C(C)(C)C)nc3-c3ccc(F)cc3)nc21 [LY2228820] | 2.81 | 1.32 | – | 5.64 | 5.77 | 2.81 | 1.80 | 3.65 | 2.18 | – | 1.26 | 3.76 | 0.80 | 0.20 | 3.91
11 | COc1ccc(C2=N[C@@H](c3ccc(Cl)cc3)[C@@H](c3ccc(Cl)cc3)N2C(=O)N2CCNC(=O)C2)c(OC(C)C)c1 [Nutlin-3] | 0.34 | 0.50 | 1.65 | 0.66 | – | 0.79 | 0.33 | 2.72 | 0.27 | 0.58 | 0.40 | 2.05 | 2.08 | 0.27 | 2.54
12 | C=CC(=O)N1CCC[C@@H](n2nc(-c3ccc(Oc4ccccc4)cc3)c3c(N)ncnc32)C1 [PCI-32765] | 5.95 | 0.07 | – | 3.28 | 3.10 | 3.72 | 0.59 | 6.29 | 0.27 | 1.62 | 0.05 | 0.13 | 1.70 | 6.26 | 0.56
13 | CC(=O)c1c(C)c2cnc(Nc3ccc(N4CCNCC4)cn3)nc2n(C2CCCC2)c1=O [PD-0332991] | 0.31 | 0.44 | 0.75 | 0.73 | 2.12 | 1.54 | 2.01 | 2.17 | 2.88 | 0.55 | 1.10 | 2.48 | 2.76 | – | 2.71
14 | Oc1c2ccccc2c2c3c(cccc13)N=N2 [SP 600125] | 0.72 | 0.79 | 0.97 | 1.18 | – | 1.16 | 1.44 | 3.49 | 0.65 | 0.87 | 1.47 | 0.75 | 5.59 | 0.00 | 1.15
15 | COc1cc2nccc(Oc3ccc(NC(=O)C4(C(=O)Nc5ccc(F)cc5)CC4)cc3)c2cc1OC [XL184] | 1.51 | 0.90 | 3.19 | – | 1.84 | 1.44 | 1.19 | 1.47 | – | 2.15 | 0.52 | 4.34 | 1.29 | 3.67 | 1.20
16 | CHIR98014 | 0.02 | 0.64 | 5.48 | 3.17 | 3.00 | 1.56 | 0.72 | 0.82 | 3.91 | 0.63 | 0.49 | 0.29 | 3.13 | 0.17 | –
